Source: patent US12146874B2, “Microtentacle imaging in patient tumor samples” (University of Maryland, Baltimore, priority 2014, dated 2024)

Assays:
MDA-436 cells = experiment: Automated McTN analysis by confocal microscopy; format: cell-based; conditions: at least 10 random cells
Source text: FIG. 24. Automated McTN analysis. […] A gradient vector flow snake algorithm was used to define the cell edges and a local curvature maxima effectively identified McTN ends (yellow diamonds). […] This automated cell shape analysis will also enable calculations of average McTN length, curvature, etc. that will yield more multi-dimensional data for McTN studies.

patient-derived cells = experiment: McTN and stem cell responses of patient-derived cells to drugs (Example 4); format: cell-based, human; conditions: concentration listed in Table 2, 30 minutes, vs vehicle 0.1% DMSO
Procedure: Patient-derived cells are treated with either vehicle (0.1% DMSO) or each of the drugs in Table 2 at the indicated concentration for 30 minutes and then analyzed for McTN incidence.

[1] = tested on: fresh patient tumor cells and tumorgrafts; experiment: McTN drug response of fresh patient samples and tumorgrafts in the microfluidic device (Aim 3b); conditions: concentration listed in Table 4, 60 minutes, media exchange in microfluidic channels
Procedure: An automated microscope stage will collect images from each channel every 5 minutes across the one hour drug treatment.
Strategy and Analysis: The device prioritized from subaim 2a will be used to analyze fresh patient samples as well as the resulting tumorgrafts from 40 patients during the three years of the project. McTN images collected from each cell sample will be analyzed with a custom MatLab algorithm developed for this assay that can automatically identify McTNs but also score metrics that were previously not possible to measure, such as the average number of McTNs per cell (FIG. 12). […] Drugs will be added by media exchange across the six microfluidic channels at the concentrations listed in Table 4 for 60 minutes, which each affect McTNs in 1 hr.

[2] = tested on: nonmetastatic SkBr3 cells; experiment: McTN scoring in detached SkBr3 cells, confocal microscopy for tubulin localization; format: cell-based, Human; conditions: Jas 500 nM, Taxol 1.2 μM, McTNs scored blindly, 3 expts
Source text: FIG. 4. Targeting cell division can increase McTNs. […] (Bars=mean+S.D from 3 expts. with McTNs scored blindly).
Genetic alterations and chemotherapies that stabilize tubulin can increase McTNs. Actin-disrupting drugs, such as jasplakinolide (Jas) are currently being developed as therapies to reduce tumor cell division and migration (Takeuchi H, Ara G, Sausville E A, Teicher B (1998). Jasplakinolide: interaction with radiation and hyperthermia in human prostate carcinoma and Lewis lung carcinoma. Cancer chemotherapy and pharmacology 42: 491-496). […] Dissemination and growth of cancer cells in metastatic sites. […] We have published that genetic alterations which promote McTNs (FIG. 2B) increase CTC lung retention in living mice (Balzer E M, Whipple R A, Thompson K, Boggs A E, Slovic J, Cho E H et al (2010). c-Src differentially regulates the functions of microtentacles and invadopodia. Oncogene 29: 6402-6408; Matrone M A, Whipple R A, Thompson K, Cho E H, Vitolo M I, Balzer E M et al (2010). Metastatic breast tumors express increased tau, which promotes microtentacle formation and the reattachment of detached breast tumor cells. Oncogene 29: 3217-3227).

COc1cc2c(c(OC)c1OC)-c1ccc(OC)c(=O)cc1[C@@H](NC(C)=O)CC2 [Colchicine]
average number of McTNs per cell (MDA-436 cells; colchicine 50 μM vs vehicle 0.1% DMSO): significantly reduces the average number of McTNs per cell
Predicted stemness & McTN effect (patient-derived cells): Decrease
Predicted stemness & McTN effect [1]: Decrease

CC[C@]1(O)C[C@@H]2CN(CCc3c([nH]c4ccccc34)[C@@](C(=O)OC)(c3cc4c(cc3OC)N(C)[C@H]3[C@@](O)(C(=O)OC)[C@H](OC(C)=O)[C@]5(CC)C=CCN6CC[C@]43[C@@H]65)C2)C1 [Vinblastine]
Predicted stemness & McTN effect (patient-derived cells): Decrease
Predicted stemness & McTN effect [1]: Decrease

COc1cc(/C=C/C(=O)CC(=O)/C=C/c2ccc(O)c(OC)c2)ccc1O [Curcumin]
Predicted stemness & McTN effect [1]: Decrease

O=S(=O)(c1cccc2c(I)cccc12)N1CCCNCC1 [ML-7]
Predicted stemness & McTN effect (patient-derived cells): Decrease

C/C1=C\[C@H](C)C[C@H](C)OC(=O)C[C@H](c2ccc(O)cc2)NC(=O)[C@@H](Cc2c(Br)[nH]c3ccccc23)N(C)C(=O)[C@H](C)NC(=O)[C@@H](C)C1 [Jazplakinolide, Jasplakinolide]
Predicted stemness & McTN effect (patient-derived cells): Decrease
levels of McTNs [2]: strongly promote McTNs
levels of McTNs ([2]; listed as Jas): increases levels of McTNs dramatically

O=S(=O)(c1cccc2cnccc12)N1CCCNCC1 [Fasudil]
Predicted stemness & McTN effect (patient-derived cells): Increase

C=C1C(=O)O[C@@H]2/C=C(\C)CC/C=C(\C)CC[C@@H]12 [Costunolide]
Predicted stemness & McTN effect (patient-derived cells): Decrease

C[C@@H](N)[C@H]1CC[C@H](C(=O)Nc2ccncc2)CC1 [Y-27632]
Predicted stemness & McTN effect (patient-derived cells): Increase

CN(C)S(=O)(=O)c1ccc2c(c1)/C(=C/c1cc3c([nH]1)CCCC3)C(=O)N2 [SU6656]
Predicted stemness & McTN effect (patient-derived cells): Increase

CC(=O)O[C@@]12CO[C@@H]1C[C@H](O)[C@@]1(C)C(=O)[C@H](O)C3=C(C)[C@@H](OC(=O)[C@H](O)[C@@H](NC(=O)OC(C)(C)C)c4ccccc4)C[C@@](O)([C@@H](OC(=O)c4ccccc4)[C@H]21)C3(C)C [Docetaxel]
Predicted stemness & McTN effect (patient-derived cells): Increase

CC(=O)O[C@H]1C(=O)[C@@]2(C)[C@H]([C@H](OC(=O)c3ccccc3)[C@]3(O)C[C@H](OC(=O)[C@H](O)[C@@H](NC(=O)c4ccccc4)c4ccccc4)C(C)=C1C3(C)C)[C@]1(OC(C)=O)CO[C@@H]1C[C@@H]2O [Paclitaxel]
average number of McTNs per cell (MDA-436 cells; paclitaxel 1 μM vs vehicle 0.1% DMSO): increases McTNs, but this does not reach significance
Predicted stemness & McTN effect (patient-derived cells): Increase
levels of McTNs [2]: strongly promote McTNs
levels of McTNs ([2]; listed as Paclitaxel-Taxol): increases levels of McTNs dramatically
Predicted stemness & McTN effect [1]: Increase

C/C(=C\c1csc(C)n1)[C@@H]1C[C@@H]2O[C@]2(C)CCC[C@H](C)[C@H](O)[C@@H](C)C(=O)C(C)(C)[C@@H](O)CC(=O)N1 [Ixabepilone]
Predicted stemness & McTN effect (patient-derived cells): Increase
Predicted stemness & McTN effect [1]: Increase
